# Data published in US20190010158A1, “ANTITUMOR EFFECT POTENTIATOR COMPRISING PYRROLOPYRIMIDINE COMPOUND” (TAIHO PHARMACEUTICAL CO., LTD, priority 2015, published 2019).
# Structures can show the parent of a compound that is named as a salt.
# Columns and labels:
# [1] = system: tumor cell line shown in Table 38; assay: Example 9: combined use with BCL-2 inhibitor, cell growth inhibition test (IC50 ratio, CI); format: cell-based; details: MOLT-4; for CI: at ED50
# U266B1 = assay: Example 1: combined use with proteasome inhibitor, cell growth inhibition test (IC50 ratio, CI), U266B1; format: cell-based, human; details: for CI: at ED50
# [2] = system: Human multiple myeloma (MM) KMS-26 cell lines; assay: Example 16: tumor growth inhibition in mice, combinational treatment with bortezomib; format: in vivo; details: KMS-26 in mice; 1 mg/kg/day, days 1, 4, 8, 11; day 15
# From the text: (§1) The test ended on day 15.
# A necessary amount of the test compound was weighed to prepare a solution to administer to the mice.
# (§2) RTVn=TVn/TV1 (equation D)
# (§3) BWCn (%)=(BWn−BW1)/BW1×100 (equation F)
# [3] = system: tumor cell lines shown in Table 58; assay: Example 22: combined use with IAP antagonist, cell growth inhibition test (IC50 ratio, CI); format: cell-based; details: HL-60; for CI: at ED50
# [4] = system: tumor cell line shown in Table 36; assay: Example 8: combined use with BTK inhibitor, cell growth inhibition test (IC50 ratio, CI); format: cell-based; details: MV-4-11; for CI: at ED50
# HL-60 = assay: Example 1: combined use with proteasome inhibitor, cell growth inhibition test (IC50 ratio, CI), HL-60; format: cell-based; details: for CI: at ED50
# [5] = system: tumor cell line shown in Table 34; assay: Example 7: combined use with Exportin-1 inhibitor, cell growth inhibition test (IC50 ratio, CI); format: cell-based; details: HCT116; for CI: at ED50
# carbonic anhydrase II = carbonic anhydrase II (Homo sapiens, UniProt P00918); details: background art, Non-patent Literature 8; cited from earlier work
# [6] = background art, Non-patent Literature 7; decrease in plasma concentration; cited from earlier work
# [7] = system: tumor cell line shown in Table 28; assay: Example 4: combined use with PARP inhibitor, cell growth inhibition test (IC50 ratio, CI); format: cell-based; details: A549; for CI: at ED50
# [8] = system: tumor cell lines shown in Table 40; assay: Example 10: combined use with HDAC inhibitor, cell growth inhibition test (IC50 ratio, CI); format: cell-based; details: U266B1; for CI: at ED50; for Comprehensive Evaluation: combined use with Reference Example Compound 55
# [9] = system: human multiple myeloma U266B1 cell line; assay: Cell growth inhibition 2, U266B1; format: cell-based
# [10] = system: human acute leukemia MV-4-11 cell line; assay: Cell growth inhibition 2, MV-4-11; format: cell-based; details: MV4-11
# [11] = system: human osteo- and soft tissue sarcoma SJCRH30 cell line; assay: Cell growth inhibition 2, SJCRH30; format: cell-based
# [12] = system: human acute T lymphoblastic leukemia CCRF-CEM cell lines; assay: Cell growth inhibition 1 (CellTiter-Glo); format: cell-based; details: culture with test compound 72 hours
# [13] = system: human prostate cancer LNCAP.FGC cell line; assay: Cell growth inhibition 2, LNCaP.FGC; format: cell-based
# [14] = molecular target: T1, NAE (heterodimer of APPBP1 and UBA3) (Homo sapiens, UniProt Q8TBC4); assay: Nedd8 conjugation inhibitory activity (AlphaScreen); format: biochemical; details: purified NAE, GST-UBC12, ATP, Biotin-Nedd8, reaction 90 minutes
# T1 construct: amino acids 1 to 463 of human UBA3 protein; made in house; host or cells: Sf9 insect cells (baculovirus co-infection) for NAE; E. coli BL21 (DE3) for GST-UBC12
# T1 sequence (Q8TBC4 1-463): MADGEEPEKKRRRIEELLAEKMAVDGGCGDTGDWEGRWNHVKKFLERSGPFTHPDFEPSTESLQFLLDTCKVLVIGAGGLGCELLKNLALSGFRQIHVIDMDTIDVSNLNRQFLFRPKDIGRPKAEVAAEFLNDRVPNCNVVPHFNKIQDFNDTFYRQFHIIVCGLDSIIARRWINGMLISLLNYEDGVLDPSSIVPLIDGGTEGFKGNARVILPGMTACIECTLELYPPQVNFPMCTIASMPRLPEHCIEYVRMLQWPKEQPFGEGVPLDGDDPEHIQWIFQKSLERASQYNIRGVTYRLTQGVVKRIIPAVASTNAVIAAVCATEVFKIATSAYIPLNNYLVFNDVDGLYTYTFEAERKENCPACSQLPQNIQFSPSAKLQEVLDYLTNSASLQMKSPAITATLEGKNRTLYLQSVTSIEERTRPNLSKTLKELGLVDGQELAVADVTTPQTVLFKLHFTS
# T1 sequence (Q13564 1-534 partner): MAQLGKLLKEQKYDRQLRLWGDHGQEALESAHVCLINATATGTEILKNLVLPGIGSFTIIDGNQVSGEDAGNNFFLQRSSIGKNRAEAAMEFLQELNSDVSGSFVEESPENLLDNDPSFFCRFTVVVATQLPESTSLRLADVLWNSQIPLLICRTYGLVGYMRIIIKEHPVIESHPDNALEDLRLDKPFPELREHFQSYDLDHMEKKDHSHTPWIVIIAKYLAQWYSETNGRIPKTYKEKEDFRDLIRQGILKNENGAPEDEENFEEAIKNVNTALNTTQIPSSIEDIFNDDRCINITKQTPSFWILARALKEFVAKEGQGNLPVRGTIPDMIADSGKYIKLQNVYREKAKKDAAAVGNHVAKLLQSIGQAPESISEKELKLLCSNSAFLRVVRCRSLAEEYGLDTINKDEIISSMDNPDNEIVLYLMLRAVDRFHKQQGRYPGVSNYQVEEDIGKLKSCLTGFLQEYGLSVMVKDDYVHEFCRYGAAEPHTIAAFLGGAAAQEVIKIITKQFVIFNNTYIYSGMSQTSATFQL
# [15] = system: human breast cancer MDA-MB-453 cell line; assay: Cell growth inhibition 2, MDA-MB-453; format: cell-based
# [16] = system: human skin cancer A-431 cell line; assay: Cell growth inhibition 2, A-431; format: cell-based
# [17] = system: human pancreatic cancer Capan-1 cell line; assay: Cell growth inhibition 2, Capan-1; format: cell-based
# [18] = system: human lung cancer A-427 cell line; assay: Cell growth inhibition 2, A-427; format: cell-based
# [19] = system: human colon cancer HCT116 cell line; assay: Cell growth inhibition 2, HCT116; format: cell-based; details: HCT-116
# [20] = system: human diffuse large B-cell lymphoma DB cell line; assay: Cell growth inhibition 2, DB; format: cell-based
# [21] = system: human acute myelogenous leukemia (AML) THP-1 cell lines; assay: Example 21: tumor growth inhibition in mice, combinational treatment with azacytidine; format: in vivo; details: THP-1 in mice; intraperitoneally 20 mg/kg/day, days 1, 4, 8, 11, 15, 18; day 22
# From the text: as §2, §3
# (§4) The test ended on day 22.
# [22] = system: human clear cell sarcoma SU-CCS-1 cell lines; assay: Example 18: tumor growth inhibition in mice, combinational treatment with doxorubicin; format: in vivo; details: day 22
# From the text: as §2, §3, §4
# The control group was untreated.
# [23] = system: tumor cell lines shown in Table 24; assay: Example 2: combined use with tyrosine kinase inhibitor, cell growth inhibition test (IC50 ratio, CI); format: cell-based; details: MOLT-4; for CI: at ED50
# [24] = system: human acute myelogenous leukemia (AML) MV-4-11 cell lines; assay: Example 17: tumor growth inhibition in mice, combinational treatment with gilteritinib; format: in vivo; details: MV-4-11 in mice; orally 3 mg/kg/day, days 1-14; day 15
# From the text: as §2, §3, §1
# [25] = IC50 of Reference Example Compound 55 : IC50 of other compound = 1:value
# [26] = Reference Example Compound 55:other compound 1:60
# [27] = combined use with Reference Example Compound 55
# [28] = Reference Example Compound 55:other compound 1:0.07
# [29] = Reference Example Compound 55:other compound 1:10
# [30] = Reference Example Compound 55:other compound 1:30
# [31] = SU-CCS-1 in mice, intravenously 8 mg/kg/day, day 1
smiles,measurement,setting,value
CC1(C)CCC(CN2CCN(c3ccc(C(=O)NS(=O)(=O)c4ccc(NCC5CCOCC5)c([N+](=O)[O-])c4)c(Oc4cnc5[nH]ccc5c4)c3)CC2)=C(c2ccc(Cl)cc2)C1 [ABT-199],IC50 Ratio,[1]; [25],119
same,CI,[1]; [26],0.37
same,CI,[1]; Reference Example Compound 55:other compound 1:180,0.40
same,Comprehensive Evaluation,[1]; [27],Synergism (0.3-0.7)
"CC(C)C[C@H](NC(=O)[C@H](Cc1ccccc1)NC(=O)c1cnccn1)B(O)O [Bortezomib, bortezomib]",IC50 Ratio,U266B1; [25],0.05
same,CI,U266B1; Reference Example Compound 55:other compound 1:0.02,0.56
same,CI,U266B1; [28],0.51
same,Comprehensive Evaluation,U266B1; [27],Synergism (0.3-0.7)
same,BWC15 (%) Mean ± SD,[2],1.3 ± 3.2%
same,RTV15 Mean ± SD,[2],6.9 ± 3.2
same,T/C15 (%),[2],66%
CN[C@@H](C)C(=O)N[C@H](C(=O)N1CCC[C@H]1C(=O)Nc1snnc1-c1ccccc1)C1CCCCC1 [GDC-0152],IC50 Ratio,[3]; [25],2122
same,CI,[3]; Reference Example Compound 55:other compound 1:90,0.45
same,CI,[3]; Reference Example Compound 55:other compound 1:270,0.62
same,Comprehensive Evaluation,[3]; [27],Synergism (0.3-0.7)
"C=CC(=O)N1CCC[C@@H](n2nc(-c3ccc(Oc4ccccc4)cc3)c3c(N)ncnc32)C1 [Ibrutinib, ibrutinib]",IC50 Ratio,[4]; [25],140
same,CI,[4]; Reference Example Compound 55:other compound 1:111,0.70
same,CI,[4]; Reference Example Compound 55:other compound 1:333,0.72
"CC(C)C[C@H](NC(=O)CNC(=O)c1cc(Cl)ccc1Cl)B(O)O [Ixazomib, ixazomib]",IC50 Ratio,HL-60; [25],19
same,CI,HL-60; [29],0.82
same,CI,HL-60; [30],0.94
same,Comprehensive Evaluation,HL-60; [27],Additive (0.9-1.10)
O=C(/C=C\n1cnc(-c2cc(C(F)(F)F)cc(C(F)(F)F)c2)n1)NNc1cnccn1 [KPT-330],IC50 Ratio,[5]; [25],21
same,CI,[5]; Reference Example Compound 55:other compound 1:11,0.69
same,CI,[5]; Reference Example Compound 55:other compound 1:33,0.75
same,Comprehensive Evaluation,[5]; [27],Moderate
"NS(=O)(=O)OC[C@@H]1C[C@@H](n2ccc3c(N[C@H]4CCc5ccccc54)ncnc32)C[C@@H]1O [MLN4924, N-[(1S)-1-indanyl]-7-[(1R)-3α-hydroxy-4α-(sulfamoyloxymethyl)cyclopentyl]-7H-pyrrolo[2,3-d]pyrimidin-4-amine]",inhibition of carbonic anhydrase II activity,carbonic anhydrase II,inhibits the activity
same,transfer of administered drug to red blood cells in the blood,[6],transferred to red blood cells
"O=C(c1cc(Cc2n[nH]c(=O)c3ccccc23)ccc1F)N1CCN(C(=O)C2CC2)CC1 [Olaparib, olaparib]",IC50 Ratio,[7]; [25],21
same,CI,[7]; [29],0.61
same,CI,[7]; [30],0.69
same,Comprehensive Evaluation,[7]; [27],Synergism (0.3-0.7)
"Cc1[nH]c2ccccc2c1CCNCc1ccc(/C=C/C(=O)NO)cc1 [Panobinostat, panobinostat]",IC50 Ratio,[8]; [25],0.08
same,CI,[8]; [28],0.90
same,CI,[8]; Reference Example Compound 55:other compound 1:0.22,0.61
same,Comprehensive Evaluation,[8],Additive (0.9-1.10)
"Nc1ncnc2c1c(C#Cc1c(F)cccc1F)cn2[C@@H]1O[C@H](CNS(N)(=O)=O)[C@@H](O)[C@H]1O [Reference Example 1, 4-Amino-5-[2-(2,6-difluorophenyl)ethynyl]-7-[(2R,3R,4S,5R)-3,4-dihydroxy-5-[(sulfamoylamino)methyl]tetrahydrofuran-2-yl]pyrrolo[2,3-d]pyrimidine]",IC50,[9],110 nM
same,IC50,[10],21 nM
same,IC50,[11],> 10000 nM
same,IC50,[12],6.2 nM
same,IC50,[13],650 nM
same,IC50,[14],≤ 0.003 µM
same,IC50,[15],460 nM
same,IC50,[16],730 nM
same,IC50,[17],730 nM
same,IC50,[18],22 nM
same,IC50,[19],16 nM
same,IC50,[20],260 nM
"O=C(CCCCCCC(=O)Nc1ccccc1)NO [Vorinostat, vorinostat]",Comprehensive Evaluation,[8],Additive (0.9-1.10)
Nc1ncn([C@@H]2O[C@H](CO)[C@@H](O)[C@H]2O)c(=O)n1 [azacytidine],BWC22 (%) Mean ± SD,[21],3.6 ± 4.5%
same,RTV22 Mean ± SD,[21],8.8 ± 2.0
same,T/C22 (%),[21],45%
COc1cccc2c1C(=O)c1c(O)c3c(c(O)c1C2=O)C[C@@](O)(C(=O)CO)C[C@@H]3O[C@H]1C[C@H](N)[C@H](O)[C@H](C)O1 [doxorubicin hydrochloride],RTV22 compared with the control group (Dunnett's test),"[22]; SU-CCS-1 in BALB/cAJcl-nu/nu mice, reference example compound 12.5 or 25 mg/kg/day iv day 1 and 8, doxorubicin hydrochloride 8 mg/kg/day iv day 1",significantly lower
same,BWC22 (%) Mean ± SD,[22]; [31],−0.3 ± 2.6%
same,RTV22 Mean ± SD,[22]; [31],6.6 ± 0.8
same,T/C22 (%),[22]; [31],74%
CCc1nc(C(N)=O)c(Nc2ccc(N3CCC(N4CCN(C)CC4)CC3)c(OC)c2)nc1NC1CCOCC1 [gilteritinib],CI,[23]; Reference Example Compound 55:other compound 1:20,0.96
same,CI,[23]; [26],0.88
same,Comprehensive Evaluation,[23]; [27],Additive (0.9-1.10)
same,BWC15 (%) Mean ± SD,[24],5.8 ± 3.0%
same,RTV15 Mean ± SD,[24],1.9 ± 0.5
same,T/C15 (%),[24],41%
